The text below walks through data of the NIST ThermoML archive (doi:10.1016/j.fluid.2013.03.002).

The nature of data set [1]: refractive index (Na D-line) (dimensionless). As to conditions: 101.33 kPa, Liquid, Standard Abbe refractometry.
For data set [2] the following is noted: 101.33 kPa, Liquid, Vibrating tube method.

± gives the expanded uncertainty stated by the source.

`CCCCCCCCCCCCCCCC` [hexadecane]: the refractive index – broadly, a measure of how strongly the sample bends light – in data set [1] (293.15 K) is reported as 1.4342 ± 0.0006; in data set [1] (298.15 K), 1.4326 ± 0.0006. For the same compound, the mass density (usually the mass of a sample divided by its volume) came out at 773.5 ± 1 kg/m3 in data set [2] (293.15 K) and 769.93 ± 1 kg/m3 in data set [2] (298.15 K).

Consider `CCCOCC(C)OCC(C)O` (stereo not drawn) [1-(1-methyl-2-propoxyethoxy)-2-propanol], for which the results for the refractive index in data set [1] (293.15 K) and in data set [1] (298.15 K) were 1.4225 ± 0.0005 and 1.4214 ± 0.0005, respectively. Also, the figures for the mass density in data set [2] (293.15 K) and in data set [2] (298.15 K) were 920.14 ± 1 kg/m3 and 915.65 ± 1 kg/m3, respectively.
